Results: ChEMBL document CHEMBL1201862, “PubChem BioAssay data set” (2004)
Activity calls are given as the source filed them.

Experiments:
[1] = target: T1, Apoptotic protease-activating factor 1 (Homo sapiens, UniProt O14727); format: functional
T1 sequence (O14727 whole entry): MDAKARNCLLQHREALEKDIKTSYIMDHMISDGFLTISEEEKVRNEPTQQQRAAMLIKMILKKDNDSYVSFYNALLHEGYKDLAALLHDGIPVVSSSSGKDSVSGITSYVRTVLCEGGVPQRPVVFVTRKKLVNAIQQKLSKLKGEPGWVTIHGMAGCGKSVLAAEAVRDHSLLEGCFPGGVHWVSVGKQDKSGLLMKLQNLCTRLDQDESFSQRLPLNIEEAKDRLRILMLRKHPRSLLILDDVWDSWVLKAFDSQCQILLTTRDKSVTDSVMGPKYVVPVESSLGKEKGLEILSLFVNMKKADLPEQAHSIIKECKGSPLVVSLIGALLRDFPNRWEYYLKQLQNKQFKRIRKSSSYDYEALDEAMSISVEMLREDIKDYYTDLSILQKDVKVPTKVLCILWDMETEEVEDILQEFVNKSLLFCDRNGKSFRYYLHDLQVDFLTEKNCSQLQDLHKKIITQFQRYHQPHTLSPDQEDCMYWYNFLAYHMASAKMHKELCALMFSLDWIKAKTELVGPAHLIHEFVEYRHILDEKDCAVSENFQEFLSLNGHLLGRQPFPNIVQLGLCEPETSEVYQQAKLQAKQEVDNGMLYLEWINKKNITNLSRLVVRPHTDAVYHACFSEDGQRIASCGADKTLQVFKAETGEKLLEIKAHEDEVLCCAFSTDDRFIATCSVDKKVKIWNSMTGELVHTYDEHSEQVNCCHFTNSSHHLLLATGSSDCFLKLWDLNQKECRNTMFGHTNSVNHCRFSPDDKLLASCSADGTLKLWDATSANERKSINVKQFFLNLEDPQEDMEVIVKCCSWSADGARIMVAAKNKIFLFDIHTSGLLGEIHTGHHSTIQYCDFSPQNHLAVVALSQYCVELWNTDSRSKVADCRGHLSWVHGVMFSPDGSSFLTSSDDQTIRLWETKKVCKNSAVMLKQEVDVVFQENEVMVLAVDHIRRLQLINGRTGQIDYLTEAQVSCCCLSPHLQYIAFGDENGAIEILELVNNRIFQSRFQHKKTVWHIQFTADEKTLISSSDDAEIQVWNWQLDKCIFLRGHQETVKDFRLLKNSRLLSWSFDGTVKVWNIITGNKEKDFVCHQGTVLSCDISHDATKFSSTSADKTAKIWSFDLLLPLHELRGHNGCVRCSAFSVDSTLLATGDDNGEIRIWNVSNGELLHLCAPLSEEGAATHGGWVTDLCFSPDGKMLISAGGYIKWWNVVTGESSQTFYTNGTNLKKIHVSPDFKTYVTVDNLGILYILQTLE

[2] = target: T2, Short transient receptor potential channel 4 (Mus musculus, UniProt Q9QUQ5); test: mouse TRPC4 channel activators, dose response, cell-based, HEK293 TRPC4/mu-opioid, Fluo-4 calcium (AID 434937); format: functional
T2 sequence (Q9QUQ5 whole entry): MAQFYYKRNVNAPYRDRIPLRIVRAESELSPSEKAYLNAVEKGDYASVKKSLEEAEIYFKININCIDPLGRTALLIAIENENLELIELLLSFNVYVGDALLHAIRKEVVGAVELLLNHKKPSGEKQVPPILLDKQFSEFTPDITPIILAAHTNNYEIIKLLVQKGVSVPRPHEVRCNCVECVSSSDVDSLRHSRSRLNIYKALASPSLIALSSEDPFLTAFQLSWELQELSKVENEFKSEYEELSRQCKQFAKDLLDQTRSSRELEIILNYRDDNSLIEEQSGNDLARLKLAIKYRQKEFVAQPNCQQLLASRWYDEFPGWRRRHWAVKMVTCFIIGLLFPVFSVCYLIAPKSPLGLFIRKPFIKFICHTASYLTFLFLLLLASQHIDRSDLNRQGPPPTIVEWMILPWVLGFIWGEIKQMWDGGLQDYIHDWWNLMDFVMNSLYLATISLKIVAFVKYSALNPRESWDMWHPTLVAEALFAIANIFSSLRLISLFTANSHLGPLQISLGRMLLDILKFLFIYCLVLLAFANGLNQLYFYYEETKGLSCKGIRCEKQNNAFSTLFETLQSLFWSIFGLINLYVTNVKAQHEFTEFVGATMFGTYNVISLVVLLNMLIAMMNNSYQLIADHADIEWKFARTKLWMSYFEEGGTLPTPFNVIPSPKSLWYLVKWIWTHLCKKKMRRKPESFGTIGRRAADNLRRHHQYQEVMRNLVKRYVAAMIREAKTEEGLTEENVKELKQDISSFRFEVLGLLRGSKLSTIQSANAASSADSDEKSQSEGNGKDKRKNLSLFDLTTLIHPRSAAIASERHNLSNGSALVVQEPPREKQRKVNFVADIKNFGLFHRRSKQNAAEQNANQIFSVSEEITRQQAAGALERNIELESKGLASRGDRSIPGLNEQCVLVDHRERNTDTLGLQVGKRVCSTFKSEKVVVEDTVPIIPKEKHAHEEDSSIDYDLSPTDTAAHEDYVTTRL

[3] = target: T3, Long-chain-fatty-acid--AMP ligase FadD28 (Mycobacterium tuberculosis, UniProt P9WQ59); test: Fluorescence polarization aasay to screen for inhibitors that compete for the binding of FadD28 to a bisubstrate Measured in Biochemical System Using Plate Reader - 2147-01_Inhibitor_Dose_CherryPick_Activity.; format: functional, Mycobacterium tuberculosis H37Rv
T3 sequence (P9WQ59 whole entry): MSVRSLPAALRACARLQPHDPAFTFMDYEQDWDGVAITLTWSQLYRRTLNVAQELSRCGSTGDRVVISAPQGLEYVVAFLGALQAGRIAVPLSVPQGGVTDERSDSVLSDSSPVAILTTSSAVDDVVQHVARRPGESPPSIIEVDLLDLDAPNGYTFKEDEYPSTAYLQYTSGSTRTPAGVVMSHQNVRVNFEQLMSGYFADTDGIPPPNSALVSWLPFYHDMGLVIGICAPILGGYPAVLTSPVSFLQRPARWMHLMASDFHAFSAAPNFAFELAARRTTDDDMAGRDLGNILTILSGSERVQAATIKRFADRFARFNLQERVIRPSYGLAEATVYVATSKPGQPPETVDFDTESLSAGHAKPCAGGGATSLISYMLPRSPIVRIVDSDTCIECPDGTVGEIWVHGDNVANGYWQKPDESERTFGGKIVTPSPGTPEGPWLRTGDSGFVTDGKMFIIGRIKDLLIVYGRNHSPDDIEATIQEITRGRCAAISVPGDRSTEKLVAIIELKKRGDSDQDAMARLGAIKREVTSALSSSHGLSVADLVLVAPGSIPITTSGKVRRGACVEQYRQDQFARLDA

[4] = target: T4, Sentrin-specific protease 6 (Homo sapiens, UniProt Q9GZR1); format: functional;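 note: Luminescence-based dose-response confirmatory assay of SENP6 inhibition, following up an ultra-high-throughput screen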
T4 sequence (Q9GZR1 whole entry): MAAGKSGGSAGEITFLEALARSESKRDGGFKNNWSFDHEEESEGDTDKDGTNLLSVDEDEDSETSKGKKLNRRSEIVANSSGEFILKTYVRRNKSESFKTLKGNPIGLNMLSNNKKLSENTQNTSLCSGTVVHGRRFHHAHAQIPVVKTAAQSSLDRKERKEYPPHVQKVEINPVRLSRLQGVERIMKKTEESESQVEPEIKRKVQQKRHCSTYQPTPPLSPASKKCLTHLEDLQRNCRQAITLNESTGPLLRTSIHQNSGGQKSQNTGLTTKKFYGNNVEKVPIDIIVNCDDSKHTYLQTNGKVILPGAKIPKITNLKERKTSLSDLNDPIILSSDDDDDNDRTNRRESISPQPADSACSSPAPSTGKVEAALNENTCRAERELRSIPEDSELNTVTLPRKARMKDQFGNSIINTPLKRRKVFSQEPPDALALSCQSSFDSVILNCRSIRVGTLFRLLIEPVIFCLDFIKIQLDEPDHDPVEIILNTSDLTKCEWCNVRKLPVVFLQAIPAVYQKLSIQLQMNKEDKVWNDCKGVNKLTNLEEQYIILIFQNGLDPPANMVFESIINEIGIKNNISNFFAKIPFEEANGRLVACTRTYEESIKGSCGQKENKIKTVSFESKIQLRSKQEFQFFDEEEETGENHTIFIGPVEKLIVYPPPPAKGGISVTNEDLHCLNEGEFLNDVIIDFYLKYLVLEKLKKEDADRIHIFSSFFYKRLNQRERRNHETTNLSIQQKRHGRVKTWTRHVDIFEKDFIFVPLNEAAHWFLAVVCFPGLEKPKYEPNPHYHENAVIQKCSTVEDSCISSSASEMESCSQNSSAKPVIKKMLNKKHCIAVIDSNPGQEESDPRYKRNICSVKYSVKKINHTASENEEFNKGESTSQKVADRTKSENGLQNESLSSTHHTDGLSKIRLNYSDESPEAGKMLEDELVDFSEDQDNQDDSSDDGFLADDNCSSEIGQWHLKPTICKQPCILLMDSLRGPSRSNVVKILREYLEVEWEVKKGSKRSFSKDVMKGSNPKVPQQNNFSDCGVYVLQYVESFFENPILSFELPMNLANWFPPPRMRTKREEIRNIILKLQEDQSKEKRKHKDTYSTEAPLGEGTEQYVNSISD

[5] = target: T5, Sentrin-specific protease 8 (Homo sapiens, UniProt Q96LD8); format: functional;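 note: luminescence read-out of SENP8 inhibition, dose-response confirmation following an ultra-high-throughput screen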
T5 sequence (Q96LD8 whole entry): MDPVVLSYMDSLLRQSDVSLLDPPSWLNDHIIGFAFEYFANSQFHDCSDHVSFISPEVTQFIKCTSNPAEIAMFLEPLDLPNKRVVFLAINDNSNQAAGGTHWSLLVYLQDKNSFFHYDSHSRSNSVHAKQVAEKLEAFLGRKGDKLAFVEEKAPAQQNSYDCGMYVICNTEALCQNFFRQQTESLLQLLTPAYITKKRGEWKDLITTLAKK

[6] = target: T6, Sentrin-specific protease 7 (Homo sapiens, UniProt Q9BQF6); format: functional;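 note: Luminescence-based dose-response confirmation of ultra-high-throughput screening hits, measuring inhibition of SENP7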
T6 sequence (Q9BQF6 whole entry): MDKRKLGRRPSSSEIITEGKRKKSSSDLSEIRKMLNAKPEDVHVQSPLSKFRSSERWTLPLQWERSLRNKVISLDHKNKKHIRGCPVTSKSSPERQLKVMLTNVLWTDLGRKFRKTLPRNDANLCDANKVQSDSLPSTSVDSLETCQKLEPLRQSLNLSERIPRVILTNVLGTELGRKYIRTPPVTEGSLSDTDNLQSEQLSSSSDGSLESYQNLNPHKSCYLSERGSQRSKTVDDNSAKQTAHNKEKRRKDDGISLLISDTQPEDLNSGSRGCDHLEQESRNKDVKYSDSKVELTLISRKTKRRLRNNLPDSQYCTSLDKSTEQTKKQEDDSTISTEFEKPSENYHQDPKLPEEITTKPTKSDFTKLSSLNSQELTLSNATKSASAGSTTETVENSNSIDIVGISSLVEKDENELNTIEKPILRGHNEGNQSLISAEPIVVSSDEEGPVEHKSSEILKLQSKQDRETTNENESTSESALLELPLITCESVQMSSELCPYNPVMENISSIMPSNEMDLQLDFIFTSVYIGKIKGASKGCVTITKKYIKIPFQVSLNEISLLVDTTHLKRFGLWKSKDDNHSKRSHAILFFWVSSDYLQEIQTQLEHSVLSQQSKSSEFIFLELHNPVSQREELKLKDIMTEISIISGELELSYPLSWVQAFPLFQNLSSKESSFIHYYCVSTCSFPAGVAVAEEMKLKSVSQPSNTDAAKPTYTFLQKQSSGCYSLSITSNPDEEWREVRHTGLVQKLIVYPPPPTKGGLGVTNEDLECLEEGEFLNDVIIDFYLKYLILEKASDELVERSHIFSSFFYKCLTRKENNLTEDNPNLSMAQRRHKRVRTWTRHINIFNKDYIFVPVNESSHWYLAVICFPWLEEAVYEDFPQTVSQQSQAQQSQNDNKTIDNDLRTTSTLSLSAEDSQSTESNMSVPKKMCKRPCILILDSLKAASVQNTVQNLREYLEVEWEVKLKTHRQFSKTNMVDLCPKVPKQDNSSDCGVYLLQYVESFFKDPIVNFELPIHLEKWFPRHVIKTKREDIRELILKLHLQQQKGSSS

[7] = Luminescence Cell-Based Dose Retest to Confirm Inhibitors of Cancer Stem Cells. [Related pubchem assays (depositor defined):AID2717, AID2721]; format: functional; conditions: Homo sapiens
[8] = target: Ras and Rab interactor 1/Tyrosine-protein kinase ABL1 (Homo sapiens, UniProt P00519+Q13671); format: functional;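 note: biochemical TR-FRET dose-response test measuring inhibition of binding between Rin1 and Abl proteins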
Sequence of Ras and Rab interactor 1/Tyrosine-protein kinase ABL1 (P00519 whole entry): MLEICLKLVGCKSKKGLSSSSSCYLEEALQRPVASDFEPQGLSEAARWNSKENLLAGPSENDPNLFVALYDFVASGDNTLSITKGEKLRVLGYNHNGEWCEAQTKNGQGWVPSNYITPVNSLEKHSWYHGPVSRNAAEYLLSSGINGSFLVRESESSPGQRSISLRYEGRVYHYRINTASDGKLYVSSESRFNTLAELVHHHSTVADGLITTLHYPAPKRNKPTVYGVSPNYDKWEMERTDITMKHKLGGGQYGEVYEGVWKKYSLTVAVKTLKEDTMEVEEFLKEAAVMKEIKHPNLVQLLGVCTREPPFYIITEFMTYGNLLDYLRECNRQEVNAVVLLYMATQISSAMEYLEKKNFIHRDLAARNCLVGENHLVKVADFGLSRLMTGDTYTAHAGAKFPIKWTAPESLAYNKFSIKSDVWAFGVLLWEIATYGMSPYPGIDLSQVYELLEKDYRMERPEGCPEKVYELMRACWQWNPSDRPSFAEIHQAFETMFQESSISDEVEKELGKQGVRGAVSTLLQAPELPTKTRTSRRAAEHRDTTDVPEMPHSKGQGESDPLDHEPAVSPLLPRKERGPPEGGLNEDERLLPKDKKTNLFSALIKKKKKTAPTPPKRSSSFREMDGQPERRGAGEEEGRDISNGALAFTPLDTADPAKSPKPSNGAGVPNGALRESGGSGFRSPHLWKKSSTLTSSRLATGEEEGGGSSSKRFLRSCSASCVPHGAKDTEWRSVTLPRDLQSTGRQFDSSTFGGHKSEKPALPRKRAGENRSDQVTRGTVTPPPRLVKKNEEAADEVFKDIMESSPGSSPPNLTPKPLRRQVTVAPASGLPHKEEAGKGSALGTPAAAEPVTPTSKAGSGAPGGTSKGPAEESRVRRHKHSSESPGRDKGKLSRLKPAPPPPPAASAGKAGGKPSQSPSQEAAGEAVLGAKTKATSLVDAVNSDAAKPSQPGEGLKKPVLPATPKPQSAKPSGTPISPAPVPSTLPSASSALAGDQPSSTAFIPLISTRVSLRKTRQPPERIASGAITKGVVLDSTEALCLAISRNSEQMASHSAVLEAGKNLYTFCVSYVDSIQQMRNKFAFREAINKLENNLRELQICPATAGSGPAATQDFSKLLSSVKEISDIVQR
Sequence of Ras and Rab interactor 1/Tyrosine-protein kinase ABL1 (Q13671 whole entry): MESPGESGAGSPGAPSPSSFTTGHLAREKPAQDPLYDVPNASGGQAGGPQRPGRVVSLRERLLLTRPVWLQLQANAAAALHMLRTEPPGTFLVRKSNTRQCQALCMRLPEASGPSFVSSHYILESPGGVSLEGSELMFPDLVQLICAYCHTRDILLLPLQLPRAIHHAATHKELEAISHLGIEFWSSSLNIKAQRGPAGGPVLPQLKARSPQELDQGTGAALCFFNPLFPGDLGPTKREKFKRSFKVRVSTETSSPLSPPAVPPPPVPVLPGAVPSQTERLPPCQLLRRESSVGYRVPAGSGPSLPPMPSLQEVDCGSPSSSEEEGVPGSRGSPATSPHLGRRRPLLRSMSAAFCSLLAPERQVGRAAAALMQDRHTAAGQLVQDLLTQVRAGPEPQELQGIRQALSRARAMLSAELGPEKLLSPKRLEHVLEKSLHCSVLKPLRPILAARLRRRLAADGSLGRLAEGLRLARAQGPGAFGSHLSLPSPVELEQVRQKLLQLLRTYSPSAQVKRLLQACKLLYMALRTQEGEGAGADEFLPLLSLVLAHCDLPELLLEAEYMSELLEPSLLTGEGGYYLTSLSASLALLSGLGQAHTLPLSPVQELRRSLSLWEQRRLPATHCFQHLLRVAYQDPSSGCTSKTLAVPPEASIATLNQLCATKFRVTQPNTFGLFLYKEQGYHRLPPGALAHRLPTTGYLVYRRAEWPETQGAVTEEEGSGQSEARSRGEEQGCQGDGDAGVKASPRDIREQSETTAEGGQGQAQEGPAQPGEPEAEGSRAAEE

In the case of `CC(C)(C)C(=O)[C@@H]1[C@@H]2C(=O)N(C3CCCCC3)C(=O)[C@@H]2[C@H]2c3ccccc3C=CN12`, the IC50 [1] is reported as 10.5 µM (active).

For `CN(C)C(CNC(=O)Cc1cccc(C(F)(F)F)c1)c1ccco1` (centres undefined), the EC50 [2] was 0.335 µM (active).

For `O=C(CC(=O)Nc1ccccc1[N+](=O)[O-])Nc1ccccc1[N+](=O)[O-]`, the AC50 [3] was 32 µM (inactive).

In the case of `COc1cc2ccccc2cc1C(=O)Nc1ccccc1Cl`, the IC50 [4] is reported as 10.2 µM (active), the IC50 [5] is reported as 17.2 µM (active) and the IC50 [6] is reported as 8.41 µM (active). For the same molecule, the AC50 [7] was 4.58 µM (active).

With `CC1CCN(CCCNS(=O)(=O)c2cc(Br)cc3c2N(C(=O)C2CC2)CC3)CC1` the EC50 [2] was 0.299 µM (active).

For `O=C(CCn1c2c(c3ccccc31)CCCC2)NNC(=O)c1ccc([N+](=O)[O-])cc1`, the IC50 [1] was 1.8 µM (active).

In the case of `CCCN(CC(=O)Nc1ccccc1C)C(=O)c1sc2ccccc2c1Cl`, the IC50 [1] is reported as > 100 µM (inactive).

With `COc1cccc(NC(=O)Nc2ccc3c(c2)CCC3)c1` the IC50 [4] was > 100 µM (inactive), the IC50 [5] was > 100 µM (inactive) and the IC50 [6] was 4.28 µM (active).

With `CCOC(=O)C1(CCc2ccccc2)CCN(Cc2ccc(OC)cc2)CC1` the EC50 [2] was 0.267 µM (active).

In the case of `Nc1nc(O)cc(NC2CCCC2)n1`, the IC50 [8] is reported as 12.4 µM (inactive).

With `COc1ccc(CCC(=O)Nc2c(-c3ccc(N(C)C)cc3)n[nH]c2O)cc1` the IC50 [8] was > 73.5 µM (inactive).

In the case of `CN(C(=O)c1ccc(NC(=O)Cc2cccc(NC(=O)C3CCN(C(=O)C4CCCC4)CC3)c2)cc1)C1CC1`, the IC50 [8] is reported as 21.2 µM (inactive).

For `Cc1nc(N/N=C/c2ccc(O)cc2O)cc(N2CCOCC2)n1`, the IC50 [8] was > 2.72 µM (active).

With `C/C(=N\Nc1ccc(Cl)c(C(=O)O)c1)c1ccc(Br)s1` the AC50 [3] was > 100 µM (inactive).
